The test system of one assay is six NKR isoforms. Kind of assay: Functional activation of the six grass carp NKR isoforms, NFAT-Luc reporter in HEK293T cells. Type of assay: cell-based, grass carp (Ctenopharyngodon idellus). The settings on record: 24 h. The protocol: To clarify the receptor selectivity of TAC4 gene products, a transfection experiment was conducted in HEK293T cells, and the fluorescent signal was detected by the firefly luciferase reporter gene detection kit. Firstly, the cDNA sequences of neurokinin receptor 1 isoforms a (NK1Ra), neurokinin receptor 1 isoforms b (NK1Rb), NK2R, neurokinin receptor 3 isoforms a1 (NK3Ra1), neurokinin receptor 3 isoforms a2 (NK3Ra2), and neurokinin receptor 3 isoforms b (NK3Rb) were isolated from grass carp pituitary, and the coding region of the six receptors were then subcloned into the eukaryotic expression vector pcDNA3.1. Secondly, the HEK293T cells were co-transfected with the plasmids of NFAT-Luc (Nuclear factor of activated T cells-luciferase), green fluorescent protein (GFP), and each pcDNA3.1-NKRs by using Lipofectamine 3000 (Thermo Fisher). The transfected HEK293T cells were incubated with various concentration HK-1 (1–10,000 nM), HK-2 (1–10,000 nM), or HK1-V7F (1–10,000 nM) for 24 h, respectively. Finally, the transfected cells were collected to detect the luciferase value according to the instructions of the firefly luciferase reporter gene detection kit.
To clarify the receptor selectivity of HK1 and HK2 for the six NKRs, HEK-293T cell lines were established to stably express NK1Ra, NK1Rb, NK2R, NK3Rb, NK3Ra1, or NK3Ra2 were established, respectively. The cells were then used for transfection study with NFAT-Luc vectors, which was allowed for functional evaluation of the activation status of Ca^2+-dependent pathway.
Figure 2 Receptor selectivity of HK1, HK2, and HK1-V7F. The nuclear factor of activated T-cells (NFAT)-Luc reporter together with NK1Ra, NK1Rb, NK2R, NK3Rb, NK3Ra1, or NK3Ra2, were transiently transfected into HEK-293 cells, respectively. The cells were incubated with increasing levels of grass carp HK1, HK2, or HK1-V7F (0.1–1000 nM), respectively. The luciferase activities were normalized against renilla expression in the same sample to adjust for potential variations in transfection efficiency. Each point is determined quadruplicate and is given as a mean ± SEM. The groups denoted by different letters represent significant differences at p-value < 0.05 (ANOVA followed Dunnett’s test).

Assay [1] deals with grass carp pituitary cells. Kind of assay: RT-qPCR of pituitary gene mRNA expression after peptide treatment of grass carp pituitary cells. Type of assay: cell-based, grass carp (Ctenopharyngodon idellus). The settings on record: 0.1–1000 nM, 24 h. From the text: To further confirm the pituitary actions of HKs in grass carp, trypsin digestion method was used to prepare for grass carp primary cultured pituitary cells. […] After drug treatment, total RNA was extracted from adherent cells by Trizol, and then subjected to reverse transcription using HifairTM III 1st Strand cDNA Synthesis Kit (Yeasen, Shanghai, China). In the present study, β-actin was used as the internal reference gene, and then, the transcript levels of PRL, SLα, CART2, UTS1, and NMB1 were detected by using a ABI 7500 real-time PCR system (see Supplementary Table S2 for primer sequences and PCR condition). In addition, the plasmid DNA containing the gene coding sequence was serially diluted as a standard for data calibration.
In this study, RT-qPCR was used to detect mRNA expression for TAC4, NKRs, PRL, SLα, CART2, UTS1, SN2, and NMB1. In the ABI7500 software, the dynamic mRNA concentration detection range of the double standard curve is 10^5, and the correlation coefficient is >0.95. […] In the transfection experiment, the detected firefly luciferase activity was routinely normalized with the GFP activity expressed in the same well, expressed as the luciferin activity ratio Luc ratio. The data from four parallel experiments was presented as mean ± SEM in the figure. All the data were analyzed by ANOVA, and then subjected to Dunnett’s test in GraphPad Prism 7.0. The significant differences between groups were indicated by p < 0.05.
Figure 5 TAC4 gene products (HK1 and HK2) induced PRL (A) and SLα (B) mRNA expression in grass carp pituitary cells. Time course of grass carp HK1 (1 μM) and HK2 (1 μM) on PRL (A) and SLα (B) mRNA expression in grass carp pituitary cells. Dose-dependence of 24-h treatment with increasing levels of HK1 and HK2 (0.1–1000 nM) on PRL (A) and SLα (B) mRNA expression in grass carp pituitary cells. After drug treatment, the total RNA of the cells was extracted by the Trizol method, and the expression of various genes was detected by RT-PCR. Data presented were expressed as mean ± SEM, and the differences between groups were significant at p-value < 0.05 by labeling diverse letters.
Figure 6 TAC4 gene products (HK1 and HK2) induced CART2, NMB1, and UTS1 mRNA expression in grass carp pituitary cells. Time course of grass carp HK1 (1 μM) and HK2 (1 μM) on CART2 (A), NMB1 (B), and UTS1 (C) mRNA expression in grass carp pituitary cells. Dose-dependence of 24-h treatment with increasing levels of HK1 or HK2 (0.1–1000 nM) on CART2 (A), NMB1 (B), and UTS1 (C) mRNA expression in grass carp pituitary cells. After drug treatment, the total RNA of the cells was extracted by the Trizol method, and the expression of various genes were detected by RT-PCR. Data presented were expressed as mean ± SEM, and the differences between groups were significant at p-value < 0.05 by labeling diverse letters.
Figure 9 Phe to Val mutation in FXGLM motif in PRL, SLα, and UTS1 regulation by HK2 in grass carp pituitary cells. (A) Effects of HK1-V7F on PRL, SLα, and UTS1 mRNA expression in grass carp pituitary cells. In this experiment, grass carp pituitary cells were incubated for 24 h with increasing levels of HK1-V7F (0.1–1000 nM). (B) Suppressed effects of HK1 on HK2-induced PRL, SLα, and UTS1 mRNA expression in grass carp pituitary cells. Pituitary cells were challenged for 24 h with grass carp HK2 (0.1 µM) in the presence or absence of HK1 (1 µM) and HK1 (10 µM). In these experiment, Trizol method was used to extract total cell RNA, and RT-PCR was used to detect PRL, SLα, and UTS1 mRNA expression. Data presented are expressed as mean ± SEM, and the differences between groups were significant at p-value < 0.05 by labeling diverse letters.

The next assay has as its system carp pituitary cells. The following applies: cited from earlier work; for LHβ secretion / PRL and SLα transcriptional levels / PRL secretion / SLα secretion: pituitary cells of carp. From the text: In mammals, the tachykinin (TAC) family includes three members, namely tachykinin 1 (TAC1), tachykinin 3 (TAC3) (tachykinin 2 (TAC2) in rodents), and TAC4, respectively. Among them, TAC1 gene encodes substance P (SP) and neurokinin A (NKA). SP is known to be involved in the regulation of pain control/injury, neurogenicinflammation and obesity with mammals. Compared with mammals, teleost have undergone an additional genome duplication during evolution, which is called fish-specific genome duplication (FSGD) or the 3R hypothesis. […] The resear ... || In mammals, many studies have focused on the actions of hemokinin on immunological regulation and inflammation. However, little information is available about its endocrinology function. […] Similar resu ... || (+ 1 further places)

A further assay relates to carp NK2R. The arrangement: method as in PMID 28323939. The settings on record: cited from earlier work. From the text: In mammals, the biological action of tachykinins is mediated by three GPCRs, namely NK1R, NK2R, and NK3R, which are stimulated preferentially by SP, NKA, and NKB, respectively. […] In the present study, due to the third round whole-genome duplication, 6 NKRs were detected in grass carp, namely NK1Ra, NK1Rb, NK2R, NK3Ra1, NK3Ra2, and NK3Rb, respectively. Based on the ...

The test system of a further assay is rats. The arrangement: method as in 2 sources, ref 26, 51 = [26]; PMID 19854230; doi:10.1016/j.peptides.2009.10.013; 26. Yang Y. Dong S. Effects of Endokinin A/B and Endokinin C/D on the modulation of pain in mice Peptides 2010 31 94 100 10.1016/j.peptides.2009.10.013 19854230 || [51]; PMID 12524318; doi:10.1016/S0006-3495(03)74885-1; 51. Grace R.C. Chandrashekar I.R. Cowsik S.M. Solution structure of the tachyk-inin peptide eledoisin Biophys. J. 2003 84 655 664 10.1016/S0006-3495(03)74885-1 12524318 PMC1302646 ||| ref 26, 53, 54 = [26]; PMID 19854230; doi:10.1016/j.peptides.2009.10.013; 26. Yang Y. Dong S. Effects of Endokinin A/B and Endokinin C/D on the modulation of pain in mice Peptides 2010 31 94 100 10.1016/j.peptides.2009.10.013 19854230 || [53]; PMID 17655832; doi:10.1016/j.brainres.2007.05.062; 53. Naono R. Nakayama T. Ikeda T. Matsushima O. Nishimori T. Leucine at the carboxyl-terminal of endokinins C and D contributes to elicitation of the antagonistic effect on substance P in rat pain pro || [54]; PMID 17101218; doi:10.1016/j.neulet.2006.09.024; 54. Yoshioka D. Takebuchi F. Nishimori T. Naono R. Ikeda T. Nakayama T. Intrathecal administration of the common carboxyl-terminal decapeptide in end-okinin A and endokinin B evokes scratching behavio. The settings on record: cited from earlier work; for pain-related behaviors: central administration, scratching, paw withdrawal, thermal hyperalgesia; for effect on SP- or EKA/B-induced pain-related behaviors: simultaneous treatment.

Details of assay [2]: method as in PMID 20233609, PMID 23317790. The following applies: cited from earlier work.
Assay [3] concerns sexually mature female zebrafish. The settings on record: intraperitoneal injection; cited from earlier work. From the text:
In mammals, TAC3 encodes neurokinin B (NKB), is known to be involved in the regulation of smooth muscles of the gastrointestinal tract, secretion of intestinal epithelial fluid, vasodilation, and stimulating sperm motility. […] The resear ...

“Also recorded” adds a separate entry of the source. Ends that are not written are not given here.

Consider “TPGLQQFFGLM-NH2 [HK1-V7F, Val to Phe mutant of HK1, …-NH2]”, for which, in the assay on six NKR isoforms (HEK-293T expressing each NKR), the “ED50, NFAT-Luc luciferase activity, NKR isoforms (in words)” value is on record as “nanomolar dose range”. Besides, the “activation of the six NKR isoforms (in words)” value with six NKR isoforms (NFAT-Luc luciferase, HEK293T, NK1Ra, NK1Rb, NK2R, NK3Ra1, NK3Ra2, NK3Rb) is reported as “notably enhanced”. In assay [1], the “PRL mRNA expression, HK1-V7F dose-response” value was “levels comparable to that induced by HK2”; the “SLα mRNA expression, HK1-V7F dose-response” value was “levels comparable to that induced by HK2; also recorded: markedly enhanced to the levels for HK2”; the “UTS1 mRNA expression, HK1-V7F dose-response” value is “levels comparable to that induced by HK2”.

“substance P (RPKPQQFFGLM; ends and bridges not checked; UniProt P20366 58-68, looked up) [SP, TAC1 gene product]”: the “LHβ release, short-term treatment” value in the assay on carp pituitary cells (3 h) is “induced the release of LHβ”. In addition, in the assay on carp pituitary cells (24 h), the “LHβ mRNA expression, prolonged treatment” value was “inhibited LHβ mRNA expression”. Besides, in the assay with carp pituitary cells, the LHβ secretion result is reported as “can trigger the secretion”; the “PRL and SLα transcriptional levels” value is on record as “increase in parallel”; the PRL secretion entry was “can trigger the secretion”; the SLα secretion result is “can trigger the secretion”. In addition, in the assay with carp NK2R, the “activation of carp NK2R” value is “comparable efficacy and potency”. Also, the pain-related behaviors entry in the assay with rats was “induce pain-related behaviors”.

Consider neuromedin B [NMB], for which, in assay [2], the “feeding and gastric peristalsis” value was “inhibit feeding and gastric peristalsis”.

Turning to “endokinin C (KKAYQLEHTFQGLL; ends and bridges not checked; UniProt Q86UU9 82-95, looked up) [EKC, human TAC4 product with FXGLL motif]”, the “effect on SP- or EKA/B-induced pain-related behaviors” value in the assay with rats is reported as “can be blocked”.

For “neurokinin B (DMHDFFVGLM; ends and bridges not checked; UniProt Q9UHF0 81-90, looked up) [NKB, TAC3 gene product]”, the “pituitary PRL and SLα synthesis and secretion” value in the assay with carp pituitary cells is “significantly induce pituitary PRL and SLα synthesis and secretion”. For the same substance, in the assay with carp pituitary cells (grass carp pituitary cells), the “PRL and SLα secretion and mRNA synthesis” value was “promote PRL and SLα secretion and mRNA synthesis”; the “UTS1, CART2 and NMB1 mRNA expression” value was “could stimulate”. The “LHβ secretion in zebrafish” value in assay [3] is “induce LHβ secretion”.

In the case of endokinin D [EKD], in the assay with rats, the “effect on SP- or EKA/B-induced pain-related behaviors” value is “can be blocked”.

For “neurokinin A (HKTDSFVGLM; ends and bridges not checked; UniProt P20366 98-107, looked up) [NKA, TAC1 gene product]”, in the assay on carp pituitary cells, the LHβ secretion result was “can trigger the secretion”; the “PRL and SLα transcriptional levels” value is “increase in parallel”; the PRL secretion entry is recorded as “can trigger the secretion”; the SLα secretion entry is recorded as “can trigger the secretion”. Also, the “activation of carp NK2R” value in the assay with carp NK2R is “comparable efficacy and potency”.

Turning to neurokinin B-related peptide [NKBRP], in the assay with carp pituitary cells (grass carp pituitary cells), the “PRL and SLα secretion and mRNA synthesis” value was “promote PRL and SLα secretion and mRNA synthesis”. Moreover, the “LHβ secretion in zebrafish” value in assay [3] is “induce LHβ secretion”.

In the case of “EKA/B: endokinins A and B, human TAC4 products (GKASQFFGLM; ends and bridges not checked; UniProt Q86UU9 58-67, looked up)”, the pain-related behaviors result with rats was “induce pain-related behaviors”.

(Values after paper PMC8657723, “Novel Pituitary Actions of TAC4 Gene Products in Teleost” (International Journal of Molecular Sciences, 2021).)
